Test results from PubChem BioAssay AID192 (DTP/NCI, 2004).
“And” between values parts separate entries of the source, which are not always exact repeats. Identical values can stand only once. Inconclusive results and toxic doses are left out. The calls were made as follows: active = survival T/C of 150% or more; inactive = T/C below 125% in these data. Square brackets hold non-standard residues; d marks the D form. Peptide text beside a SMILES is read from it. ξ: configuration not given here. ξE = NC(CCC(=O)O)C(=O)O

Tested on: BDF1 mice, B16 melanoma ip, median survival T/C
Experiment: NCI In Vivo Anticancer Drug Screen. Data for tumor model B16 Melanoma (intraperitoneal) in B6D2F1 (BDF1) mice
Conditions: endpoint: median survival time, higher = longer survival
Procedure, shortened: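 Read-out: survival or tumor size, given as treated/control ratio. Controls received vehicle only; animals bore transplantable tumors.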

[1] = dose: 100.0 mg/kg/injection, schedule: Q01DX009 (ip), vehicle: Klucel (hydroxypropylcellulose) (HPC)
[2] = dose: 200.0 mg/kg/injection, schedule: Q01DX009 (ip), vehicle: Klucel (hydroxypropylcellulose) (HPC)
[3] = dose: 400.0 mg/kg/injection, schedule: Q01DX009 (ip), vehicle: Klucel (hydroxypropylcellulose) (HPC)
[4] = dose: 50.0 mg/kg/injection, schedule: Q01DX009 (ip), vehicle: Klucel (hydroxypropylcellulose) (HPC)
[5] = dose: 2.0 mg/kg/injection, schedule: Q01DX009 (ip), vehicle: saline
[6] = dose: 12.5 mg/kg/injection, schedule: Q01DX009 (ip), vehicle: saline with Tween-80
[7] = dose: 25.0 mg/kg/injection, schedule: Q01DX009 (ip), vehicle: saline with Tween-80
[8] = dose: 50.0 mg/kg/injection, schedule: Q04DX003 (ip), vehicle: saline with Tween-80
[9] = dose: 12.5 mg/kg/injection, schedule: Q01DX009 (ip), vehicle: saline

Measured: T/C

CC(CCCN(CCCl)CCCl)Nc1ccnc2cc(Cl)ccc12 (centres undefined)
inactive: dose: 0.25 mg/kg/injection, schedule: Q01DX009 (ip), vehicle: saline + alcohol 94 % of control | dose: 0.25 mg/kg/injection, schedule: Q04DX003 (ip), vehicle: saline + alcohol 100 % of control | dose: 0.5 mg/kg/injection, schedule: Q01DX009 (ip), vehicle: saline + alcohol 94 % of control | dose: 0.5 mg/kg/injection, schedule: Q04DX003 (ip), vehicle: saline + alcohol 106 % of control | dose: 1.0 mg/kg/injection, schedule: Q01DX009 (ip), vehicle: saline + alcohol 97 % of control | dose: 1.0 mg/kg/injection, schedule: Q04DX003 (ip), vehicle: saline + alcohol 112 % of control | dose: 2.0 mg/kg/injection, schedule: Q01DX009 (ip), vehicle: saline + alcohol 88 % of control | dose: 2.0 mg/kg/injection, schedule: Q04DX003 (ip), vehicle: saline + alcohol 118 % of control

CS(=O)(=O)c1nnc(-c2ccccc2)s1
inactive: dose: 100.0 mg/kg/injection, schedule: Q01DX009 (ip), vehicle: carboxymethylcellulose (CMC) 111 % of control | dose: 200.0 mg/kg/injection, schedule: Q01DX009 (ip), vehicle: carboxymethylcellulose (CMC) 102 % of control

COc1ccc(COC(=O)CN2C(=O)c3ccccc3C2=O)cc1
inactive: [1] 105 % of control | [2] 107 % of control | [3] 100 % of control

C(=NC1CCCCC1)c1c[nH]c2ccccc12
inactive: dose: 50.0 mg/kg/injection, schedule: Q01DX009 (ip), vehicle: saline with Tween-80 100 % of control | dose: 100.0 mg/kg/injection, schedule: Q01DX009 (ip), vehicle: saline with Tween-80 97 % of control | dose: 200.0 mg/kg/injection, schedule: Q01DX009 (ip), vehicle: saline with Tween-80 97 % of control

NCC(=O)NCC(=O)NC(CCC(=O)O)C(=O)O (stereo not drawn) (H-Gly-Gly-[ξE]-OH)
inactive: dose: 50.0 mg/kg/injection, schedule: Q01DX009 (ip), vehicle: saline 101 % of control | dose: 100.0 mg/kg/injection, schedule: Q01DX009 (ip), vehicle: saline 97 % of control | dose: 200.0 mg/kg/injection, schedule: Q01DX009 (ip), vehicle: saline 94 % of control | dose: 400.0 mg/kg/injection, schedule: Q01DX009 (ip), vehicle: saline 94 % of control

Nc1cc(Cl)c2cccnc2c1O
inactive: dose: 22.0 mg/kg/injection, schedule: Q01DX009 (ip), vehicle: saline 115 % of control | dose: 33.0 mg/kg/injection, schedule: Q01DX009 (ip), vehicle: saline 120 % of control | dose: 44.0 mg/kg/injection, schedule: Q04DX003 (ip), vehicle: saline 106 % of control | dose: 66.0 mg/kg/injection, schedule: Q04DX003 (ip), vehicle: saline 106 % of control | dose: 100.0 mg/kg/injection, schedule: Q04DX003 (ip), vehicle: saline 86 % of control

C=C1C(C)C2C(Cc3ccccc3)NC(=O)C23C(OC(C)=O)C=CC(C)(O)C(=O)C(C)C/C=C/C3C1O (centres undefined)
inactive: dose: 0.63 mg/kg/injection, schedule: Q01DX009 (ip), vehicle: Klucel (hydroxypropylcellulose) (HPC) 103 % of control | dose: 1.25 mg/kg/injection, schedule: Q01DX009 (ip), vehicle: Klucel (hydroxypropylcellulose) (HPC) 94 % of control and 114 % of control | dose: 2.5 mg/kg/injection, schedule: Q01DX009 (ip), vehicle: Klucel (hydroxypropylcellulose) (HPC) 100 % of control and 114 % of control | dose: 5.0 mg/kg/injection, schedule: Q01DX009 (ip), vehicle: Klucel (hydroxypropylcellulose) (HPC) 108 % of control and 112 % of control

CCNC(C)(C)C(SSS)c1ccco1 (centres undefined)
inactive: dose: 12.5 mg/kg/injection, schedule: Q01DX009 (ip), vehicle: Klucel (hydroxypropylcellulose) (HPC) 98 % of control | dose: 25.0 mg/kg/injection, schedule: Q01DX009 (ip), vehicle: Klucel (hydroxypropylcellulose) (HPC) 94 % of control | [4] 104 % of control

Cc1[nH]c(=O)[nH]c(=O)c1[N+](=O)[O-]
inactive: [1] 100 % of control | [2] 95 % of control | [3] 100 % of control

C=C(C)C12CC(COC(=O)c3ccccc3)C34OC5(OC1C3C1OC1(CO)C(O)C1(O)C(OC(=O)c3ccccc3)C(C)C(C(C)CCCCCCC5O)C14)O2 (centres undefined)
inactive: dose: 3.8 micrograms/kg/injection, schedule: Q01DX009 (ip), vehicle: saline with Tween-80 93 % of control | dose: 7.5 micrograms/kg/injection, schedule: Q01DX009 (ip), vehicle: saline with Tween-80 97 % of control

COc1cc2c[n+](C)c3c4cc(OC)c(OC)cc4ccc3c2cc1OC
inactive: dose: 6.25 mg/kg/injection, schedule: Q01DX001 (ip), vehicle: saline with Tween-80 109 % of control | dose: 12.5 mg/kg/injection, schedule: Q01DX001 (ip), vehicle: saline with Tween-80 100 % of control | dose: 25.0 mg/kg/injection, schedule: Q01DX001 (ip), vehicle: saline with Tween-80 105 % of control | dose: 50.0 mg/kg/injection, schedule: Q01DX001 (ip), vehicle: saline with Tween-80 88 % of control | [4] 108 % of control | dose: 100.0 mg/kg/injection, schedule: Q01DX001 (ip), vehicle: saline with Tween-80 90 % of control | [1] 102 % of control

COC1C(O)C(C)OC(OC2CC(O)C3(C)C(CCC4C3CCC3(C)C(C5=CC(=O)OC5)CCC43O)C2)C1O (centres undefined) (tested in a mixture with another compound)
inactive: [5] 99 % of control | dose: 4.0 mg/kg/injection, schedule: Q01DX009 (ip), vehicle: saline 97 % of control | dose: 8.0 mg/kg/injection, schedule: Q01DX009 (ip), vehicle: saline 97 % of control | dose: 16.0 mg/kg/injection, schedule: Q01DX009 (ip), vehicle: saline 94 % of control | dose: 32.0 mg/kg/injection, schedule: Q01DX009 (ip), vehicle: saline 94 % of control | dose: 64.0 mg/kg/injection, schedule: Q01DX009 (ip), vehicle: saline 88 % of control

FC(F)(F)c1ccc2c(c1)N(CCCN1CCN(CCOc3ccccc3)CC1)c1ccccc1S2
inactive: [5] 121 % of control

COc1ccc(CSC(=S)NNc2ccccc2)cc1
inactive: [1] 107 % of control | [2] 103 % of control | [3] 106 % of control

O=C1N=C(Oc2ccccc2)SC1=O
inactive: [6] 101 % of control | [7] 96 % of control

O=C(c1ccc(O)cc1O)c1cccc2ccccc12
inactive: [1] 98 % of control | [2] 98 % of control | [3] 100 % of control

Cc1ccc(S(=O)(=O)Nc2ncc([N+](=O)[O-])s2)cc1
inactive: dose: 12.5 mg/kg/injection, schedule: Q04DX003 (ip), vehicle: saline with Tween-80 102 % of control | dose: 25.0 mg/kg/injection, schedule: Q04DX003 (ip), vehicle: saline with Tween-80 109 % of control | [8] 109 % of control

NC1CC[N-]CC1.NC1CC[N-]CC1.NC1CC[N-]CC1.NC1CC[N-]CC1.[Cl][Rh][Cl]
inactive: dose: 6.25 mg/kg/injection, schedule: Q01DX009 (ip), vehicle: saline with Tween-80 103 % of control | [6] 101 % of control | [7] 93 % of control

O=C(O)C(CSC(c1ccccc1)(c1ccccc1)c1ccccc1)N=Cc1cccs1 (centres undefined)
inactive: [9] 117 % of control | dose: 25.0 mg/kg/injection, schedule: Q01DX009 (ip), vehicle: saline 122 % of control

C#CCOCC(CCl)OC(N)=O (centres undefined)
inactive: [8] 111 % of control | dose: 100.0 mg/kg/injection, schedule: Q04DX003 (ip), vehicle: saline with Tween-80 105 % of control | dose: 200.0 mg/kg/injection, schedule: Q04DX003 (ip), vehicle: saline with Tween-80 108 % of control

CCC1(CC)COC(=O)NC1=O
inactive: dose: 1.56 mg/kg/injection, schedule: Q01DX009 (ip), vehicle: saline 105 % of control | dose: 3.12 mg/kg/injection, schedule: Q01DX009 (ip), vehicle: saline 97 % of control | dose: 6.25 mg/kg/injection, schedule: Q01DX009 (ip), vehicle: saline 105 % of control | [9] 107 % of control
